Assay results reported in PMC7159426 (American Journal of Respiratory and Critical Care Medicine, 2020).

How the values were obtained:
TMEM16A (anoctamin-1) = target: T1, TMEM16A (anoctamin-1) (Homo sapiens, UniProt Q5XXA6); assay: whole-cell patch clamp; type: cell-based
T1 sequence (Q5XXA6 1-986): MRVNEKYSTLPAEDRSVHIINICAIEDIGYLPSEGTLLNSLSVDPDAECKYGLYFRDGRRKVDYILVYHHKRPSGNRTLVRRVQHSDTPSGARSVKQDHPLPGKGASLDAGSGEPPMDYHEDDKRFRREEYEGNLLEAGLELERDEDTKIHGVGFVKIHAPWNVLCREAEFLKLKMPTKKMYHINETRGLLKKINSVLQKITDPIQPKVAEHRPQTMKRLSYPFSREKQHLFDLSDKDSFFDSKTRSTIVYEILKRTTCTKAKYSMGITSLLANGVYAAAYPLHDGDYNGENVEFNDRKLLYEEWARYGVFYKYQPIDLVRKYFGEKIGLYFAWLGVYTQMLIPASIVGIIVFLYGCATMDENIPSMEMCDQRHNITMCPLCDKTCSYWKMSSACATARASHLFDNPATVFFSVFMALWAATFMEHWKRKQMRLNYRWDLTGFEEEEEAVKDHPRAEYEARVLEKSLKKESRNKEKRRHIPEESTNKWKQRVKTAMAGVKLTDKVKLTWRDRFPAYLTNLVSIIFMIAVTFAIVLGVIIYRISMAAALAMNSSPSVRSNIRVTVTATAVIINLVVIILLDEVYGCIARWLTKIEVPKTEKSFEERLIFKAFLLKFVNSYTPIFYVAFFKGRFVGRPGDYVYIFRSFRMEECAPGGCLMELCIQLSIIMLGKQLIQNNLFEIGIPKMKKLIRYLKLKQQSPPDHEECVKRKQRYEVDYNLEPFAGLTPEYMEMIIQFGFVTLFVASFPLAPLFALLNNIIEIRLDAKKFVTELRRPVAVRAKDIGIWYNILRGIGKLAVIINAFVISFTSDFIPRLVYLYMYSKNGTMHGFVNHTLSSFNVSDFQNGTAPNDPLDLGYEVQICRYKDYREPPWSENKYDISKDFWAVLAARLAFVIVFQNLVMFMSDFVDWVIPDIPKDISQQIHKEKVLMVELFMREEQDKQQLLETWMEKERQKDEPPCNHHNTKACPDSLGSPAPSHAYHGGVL

sheep TMEM16A = target: T2, sheep TMEM16A (Ovis aries, UniProt A0ACI6NM12); assay: whole-cell patch clamp; type: cell-based
T2 sequence (A0ACI6NM12 1-1040): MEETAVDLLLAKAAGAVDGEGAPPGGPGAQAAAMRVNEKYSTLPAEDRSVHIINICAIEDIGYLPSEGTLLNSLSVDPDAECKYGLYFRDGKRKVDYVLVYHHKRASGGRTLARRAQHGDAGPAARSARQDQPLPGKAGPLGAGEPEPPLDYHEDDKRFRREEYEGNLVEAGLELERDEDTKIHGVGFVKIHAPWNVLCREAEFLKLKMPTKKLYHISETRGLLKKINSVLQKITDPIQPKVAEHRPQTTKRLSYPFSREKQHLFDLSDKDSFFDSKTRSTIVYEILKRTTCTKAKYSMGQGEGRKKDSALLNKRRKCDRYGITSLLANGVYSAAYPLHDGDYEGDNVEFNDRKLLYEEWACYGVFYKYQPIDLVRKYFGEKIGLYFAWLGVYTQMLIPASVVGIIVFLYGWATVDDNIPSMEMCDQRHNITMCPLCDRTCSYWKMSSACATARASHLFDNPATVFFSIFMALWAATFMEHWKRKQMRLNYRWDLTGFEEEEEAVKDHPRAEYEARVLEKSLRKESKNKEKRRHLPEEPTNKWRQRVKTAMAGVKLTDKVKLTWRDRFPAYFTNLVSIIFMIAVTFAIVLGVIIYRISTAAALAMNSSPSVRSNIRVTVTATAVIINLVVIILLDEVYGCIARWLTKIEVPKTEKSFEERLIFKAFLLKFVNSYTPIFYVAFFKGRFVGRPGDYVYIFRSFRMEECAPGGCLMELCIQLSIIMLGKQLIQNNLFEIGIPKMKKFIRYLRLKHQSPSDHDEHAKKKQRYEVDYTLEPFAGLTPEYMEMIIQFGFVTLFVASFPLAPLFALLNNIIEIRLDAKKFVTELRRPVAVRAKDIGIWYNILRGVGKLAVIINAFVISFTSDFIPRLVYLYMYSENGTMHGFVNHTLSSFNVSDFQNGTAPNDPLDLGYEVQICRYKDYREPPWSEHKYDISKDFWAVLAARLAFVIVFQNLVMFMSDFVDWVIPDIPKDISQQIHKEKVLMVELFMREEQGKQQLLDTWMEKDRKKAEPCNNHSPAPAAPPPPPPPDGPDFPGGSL

Question: What does the source list for ETX001?
Answer: EC50 (TMEM16A (anoctamin-1)): 116 ± 16 nM; EC50 (sheep TMEM16A): 127 ± 21 nM
